# According to patent publication US20260274892A1, “MACROCYCLIC BROAD SPECTRUM ANTIBIOTICS” (RQx Pharmaceuticals, Inc., priority 2017, published 2026):
# Tests used:
# [1] = test system: Methicillin Resistant Staphylococcus aureus strain USA 200; experiment: Minimum inhibitory concentration (MIC), CLSI broth micro-dilution, S. aureus; type: cell-based; conditions: Staphylococcus aureus, MRSA / USA200, MRSA USA 200, cation adjusted Mueller Hinton Broth + 0.002% Tween-80, 35° C., 22 hours
# Method in brief: (§1)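 Antibacterial potency is measured as MIC by the CLSI broth dilution method. Bacteria at OD600 0.0005 in Tween-80-supplemented cation-adjusted Mueller Hinton broth face ten twofold compound dilutions for 22 h at 35° C.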
# [2] = test system: Escherichia coli ATCC 25922; experiment: Minimum inhibitory concentration (MIC), CLSI broth micro-dilution, E. coli; type: cell-based; conditions: Escherichia coli
# Method in brief: as §1
# [3] = ATCC25922, 22 h, Table 6, cation adjusted Mueller Hinton Broth + 0.002% Tween-80, 35° C.
SMILES,MIC ([1]; Table 6),"MIC [2, 3]",MIC ([1]; Table 8),"MIC ([2]; ATCC25922, 22 h, Table 8, cation adjusted Mueller Hinton Broth + 0.002% Tween-80, 35° C.)","MIC ([2]; ATCC25922, Table 6, cation adjusted Mueller Hinton Broth + 0.002% Tween-80, 35° C., 22 hours)"
"CCCCc1ccc(Oc2nc(C)c(C(=O)N[C@@H](CCN)C(=O)N(C)[C@@H]3C(=O)N[C@@H](C)C(=O)N[C@H](C(=O)NCC#N)Cc4ccc(OCCN)c(c4)-c4cc3ccc4OCCN)c(C)n2)cc1 (racemic) [Compound 354, rac-(8S,11S,14S)-3,18-bis(2-aminoethoxy)-N-(cyanomethyl)-11-methyl-14-[methyl-[rac-(2S)-4-amino-2-[[2-(4-butylphenoxy)-4,6-dimethyl-pyrimidine-5-carbonyl]amino]butanoyl]amino]-10,13-dioxo-9,12-diazatricyclo[13.3.1.12,6]icosa-1(18),2(20),3,5,15(19),16-hexaene-8-carboxamide]",0.016 µM,1.5 µM,–,–,–
"CCCC1(c2ccc(-c3nc(C)c(C(=O)N[C@@H](CCN)C(=O)N(C)[C@@H]4C(=O)N[C@@H](C)C(=O)N[C@H](C(=O)NCC#N)Cc5ccc(OCCN)c(c5)-c5cc4ccc5OCCN)c(C)n3)cc2)CC1 (racemic) [Compound 282, rac-(8S,11S,14S)-3,18-bis(2-aminoethoxy)-N-(cyanomethyl)-11-methyl-14-[methyl-[rac-(2S)-4-amino-2-[[4,6-dimethyl-2-[4-(1-propylcyclopropyl)phenyl]pyrimidine-5-carbonyl]amino]butanoyl]amino]-10,13-dioxo-9,12-diazatricyclo[13.3.1.12,6]icosa-1(18),2(20),3,5,15(19),16-hexaene-8-carboxamide]",0.016 µM,0.094 µM,–,–,–
"CCCCc1ccc(C#Cc2nc(C)c(C(=O)N[C@@H](CCN)C(=O)N(C)[C@@H]3C(=O)N[C@@H](C)C(=O)N[C@H](C(=O)NCC#N)Cc4ccc(OCCN)c(c4)-c4cc3ccc4OCCN)c(C)n2)cc1 (racemic) [Compound 308, rac-(8S,11S,14S)-3,18-bis(2-aminoethoxy)-N-(cyanomethyl)-11-methyl-14-[methyl-[rac-(2S)-4-amino-2-[[2-[2-(4-butylphenyl)ethynyl]-4,6-dimethyl-pyrimidine-5-carbonyl]amino]butanoyl]amino]-10,13-dioxo-9,12-diazatricyclo[13.3.1.12,6]icosa-1(18),2(20),3,5,15(19),16-hexaene-8-carboxamide]",0.012 µM,0.096 µM,–,–,–
"Cc1nc(C#CC2CCCCC2)ccc1C(=O)N[C@@H](CCN)C(=O)N(C)[C@@H]1C(=O)N[C@@H](C)C(=O)N[C@H](C(=O)NCC#N)Cc2ccc(OCCN)c(c2)-c2cc1ccc2OCCN (racemic) [Compound 214, rac-(8S,11S,14S)-3,18-bis(2-aminoethoxy)-N-(cyanomethyl)-11-methyl-14-[methyl-[rac-(2S)-4-amino-2-[[6-(2-cyclohexylethynyl)-2-methyl-pyridine-3-carbonyl]amino]butanoyl]amino]-10,13-dioxo-9,12-diazatricyclo[13.3.1.12,6]icosa-1(18),2(20),3,5,15(19),16-hexaene-8-carboxamide]",0.034 µM,0.41 µM,–,–,–
"Cc1nc(-c2ccc(N3CCCCCCC3)cc2)nc(C)c1C(=O)N[C@@H](CCN)C(=O)N(C)[C@@H]1C(=O)N[C@@H](C)C(=O)N[C@H](C(=O)NCC#N)Cc2ccc(OCCN)c(c2)-c2cc1ccc2OCCN (racemic) [Compound 326, rac-(8S,11S,14S)-3,18-bis(2-aminoethoxy)-N-(cyanomethyl)-11-methyl-14-[methyl-[rac-(2S)-4-amino-2-[[2-[4-(azocan-1-yl)phenyl]-4,6-dimethyl-pyrimidine-5-carbonyl]amino]butanoyl]amino]-10,13-dioxo-9,12-diazatricyclo[13.3.1.12,6]icosa-1(18),2(20),3,5,15(19),16-hexaene-8-carboxamide]",0.031 µM,0.13 µM,–,–,–
"COCCOc1ccc(-c2nc(C)c(C(=O)N[C@@H](CCN)C(=O)N(C)[C@@H]3C(=O)N[C@@H](C)C(=O)N[C@H](C(=O)NCC#N)Cc4ccc(OCCN)c(c4)-c4cc3ccc4OCCN)c(C)n2)cc1 (racemic) [Compound 333, rac-(8S,11S,14S)-3,18-bis(2-aminoethoxy)-N-(cyanomethyl)-11-methyl-14-[methyl-[rac-(2S)-4-amino-2-[[2-[4-(2-methoxyethoxy)phenyl]-4,6-dimethyl-pyrimidine-5-carbonyl]amino]butanoyl]amino]-10,13-dioxo-9,12-diazatricyclo[13.3.1.12,6]icosa-1(18),2(20),3,5,15(19),16-hexaene-8-carboxamide]",1 µM,–,–,–,2 µM
"Cc1nc(-c2ccc3c(c2)OCCO3)nc(C)c1C(=O)N[C@@H](CCN)C(=O)N(C)[C@@H]1C(=O)N[C@@H](C)C(=O)N[C@H](C(=O)NCC#N)Cc2ccc(OCCN)c(c2)-c2cc1ccc2OCCN (racemic) [Compound 334, rac-(8S,11S,14S)-3,18-bis(2-aminoethoxy)-N-(cyanomethyl)-11-methyl-14-[methyl-[rac-(2S)-4-amino-2-[[2-(2,3-dihydro-1,4-benzodioxin-6-yl)-4,6-dimethyl-pyrimidine-5-carbonyl]amino]butanoyl]amino]-10,13-dioxo-9,12-diazatricyclo[13.3.1.12,6]icosa-1(18),2(20),3,5,15(19),16-hexaene-8-carboxamide]",0.5 µM,4 µM,–,–,–

# Second part, led by results:
MIC ([1]; Table 6),"MIC [2, 3]",MIC ([1]; Table 8),"MIC ([2]; ATCC25922, 22 h, Table 8, cation adjusted Mueller Hinton Broth + 0.002% Tween-80, 35° C.)",SMILES,"MIC ([2]; ATCC25922, Table 6, cation adjusted Mueller Hinton Broth + 0.002% Tween-80, 35° C., 22 hours)"
–,–,0.75 µM,0.38 µM,"CCC1(Oc2ccc(-c3nc(C)c(C(=O)N[C@@H](CCN)C(=O)N(C)[C@@H]4C(=O)N[C@@H](C)C(=O)N[C@H](C(=O)O)Cc5ccc(OCCN)c(c5)-c5cc4ccc5OCCN)c(C)n3)cc2)CC1 (racemic) [Compound 639, rac-(8S,11S,14S)-3,18-bis(2-aminoethoxy)-11-methyl-14-[methyl-[rac-(2S)-4-amino-2-[[2-[4-(1-ethylcyclopropoxy)phenyl]-4,6-dimethyl-pyrimidine-5-carbonyl]amino]butanoyl]amino]-10,13-dioxo-9,12-diazatricyclo [13.3.1.12,6]icosa-1(18),2(20),3,5,15(19), 16-hexaene-8-carboxylic acid]",–
0.045 µM,1.4 µM,–,–,"CCCCCc1ccc(-c2ncc(C(=O)N[C@@H](CCN)C(=O)N(C)[C@@H]3C(=O)N[C@@H](C)C(=O)N[C@H](C(=O)NCC#N)Cc4ccc(O)c(c4)-c4cc3ccc4O)c(C)n2)cc1 (racemic) [Compound 432, rac-(8S,11S,14S)-N-(cyanomethyl)-3,18-dihydroxy-11-methyl-14-[methyl-[rac-(2S)-4-amino-2-[[4-methyl-2-(4-pentylphenyl)pyrimidine-5-carbonyl]amino]butanoyl]amino]-10,13-dioxo-9,12-diazatricyclo[13.3.1.12,6]icosa-1(18),2(20),3,5,15(19),16-hexaene-8-carboxamide]",–
0.044 µM,0.28 µM,–,–,"Cc1nc(-c2ccc(C(C)(C)C)cc2)ncc1C(=O)N[C@@H](CCN)C(=O)N(C)[C@@H]1C(=O)N[C@@H](C)C(=O)N[C@H](C(=O)NCC#N)Cc2ccc(O)c(c2)-c2cc1ccc2OCCN (racemic) [Compound 523, rac-(8S,11S,14S)-18-(2-aminoethoxy)-N-(cyanomethyl)-3-hydroxy-11-methyl-14-[methyl-[rac-(2S)-4-amino-2-[[2-(4-tert-butylphenyl)-4-methyl-pyrimidine-5-carbonyl]amino]butanoyl]amino]-10,13-dioxo-9,12-diazatricyclo[13.3.1.12,6]icosa-1(18),2(20),3,5,15(19),16-hexaene-8-carboxamide]",–
